{"source": "patent US20060234276A1", "about": "“Methods of treatment of type 2 diabetes” (priority 1998, published 2006)", "key": {"[1]": {"test_system": "isolated β-cells", "assay": "Membrane capacitance recordings (exocytosis) in isolated β-cells", "type": "cell-based, mouse", "experimental": "Isolation of pancreatic β-cells. Single β-cells were obtained from isolated islets dispersed by gentle trituration (120 strokes through a 200 μl pipette tip) in Ca^2+ and Mg^2+-free PBS containing […]. Cells were plated on glass coverslips and maintained in culture in RPMI containing 11.6 mM glucose for 48-96 hr.\nCapacitance recordings. Capacitance measurements were made with the phase-tracking technique in which a 60 mV peak-to-peak sine wave was superimposed on a holding potential of −80 mV as previously described. Conductance and capacitance values were continuously generated and recorded. The whole-cell capacitance was canceled with the slow capacitance compensation; unbalancing the slow capacitance compensation by 100 fF provided the capacitance calibration signal used to calculate changes in membrane capacitance. The sinusoidal voltage template was interrupted to deliver depolarizations to a cell. Beta cells were stimulated with a train of ten step depolarizations to +20 mV (HP=−80 mV). Each step depolarization lasted 150 ms and was separated by 400 ms interpulse duration. Capacitance measurements were carried out in the perforated whole-cell configuration. The data were collected at a 500 μsec sampling rate and filtered at 5 kHz. Recordings with series resistance >20 MΩ were discarded. Series resistance compensation was applied in all recordings.\nThe recording solution for the capacitance measurements contained (in mM): 130 NaCl, 2 glucose, 10 Na-HEPES, 1 MgCl2, 2 KCl, and 5 CaCl2, pH 7.3 with NaOH. The pipette solution contained (in mM): 135 Cs-glutamate, 10 Na-HEPES, 9.5 NaCl, 0.5 TEACl, and 0.5 CaCl2, pH7.3 with CsOH. The pipettes were backfilled with an identical solution to which amphotericin B (final concentration of 0.5 mg/ml) was added and then sonicated. The amphotericin B stock solution (125 mg/ml) was kept frozen at −20° C. and used for one week. ALLM pre-treatment was as described above (see patch-clamp electrophysiology section). All electrophysiological recordings were carried out at room temperature (22-24° C.)"}, "[2]": {"test_system": "rat adipocytes", "assay": "2-Deoxyglucose uptake into adipocytes", "type": "cell-based", "details": "100 μM ALLM or 200 μM E-64-d", "experimental": "Adipocytes were isolated from epididymal fat pads of 3 month old male Wistar rats as described previously (Robdell, 1964) with the following modification: fat pads were minced to 1-2 mm pieces and incubated for ˜25 min at 37° C. with collagenase I (1 mg/ml, Worthington Biochemicals, Lakewood, N.J.) in KRB containing 10 mM Hepes (pH 7.4), 0.2% BSA and 2 mM sodium pyruvate. The cell suspension was filtered through a nylon mesh (134 μM, Spectrum Lab., Laguna Hills, Calif.) washed three times by floating and allowed to rest for 45 min in the KRB. […] Then another 50 μl of KRB containing 5 mM 2-DOG (final concentration 1 mM), 0.5 μCi of 2-deoxy-[2,6-^3H]glucose was added and cells were incubated for a further 5 min at 25° C. The transport was stopped by adding cytochalasin B (final concentration 50 μM) and cells were spun through 250 μl of dinonyl phthalate oil (Fisher Scientific, Pittsburgh, Pa.). Cells were then transferred to scintillation vials for counting."}, "[3]": {"test_system": "rat soleus muscle strips", "assay": "2-Deoxyglucose uptake into soleus muscle strips", "type": "cell-based", "details": "100 μM ALLM or 200 μM E-64-d", "experimental": "2-Deoxyglucose uptake into skeletal muscle and adipose tissue. 2-deoxyglucose (2-DOG) uptake by isolated strips of soleus muscle from normal Wistar rats was measured using a modification of a previously described protocol (Burant et al., 1984). […] Muscles were then extracted and 2-DOG uptake calculated as previously described (Burant et al., 1984)."}}, "note": "Peptide text beside a SMILES is read from it.", "data": [{"smiles": "CSCC[C@@H](C=O)NC(=O)[C@H](CC(C)C)NC(=O)[C@H](CC(C)C)NC(C)=O", "note": "[ALLM, N-Ac-Leu-Leu-methioninal] (Ac-Leu-Leu-Met-aldehyde)", "values": [{"measurement": "rates of exocytosis in β-cells", "setting": "[1]; 4 days culture with inhibitor", "result": "significantly lower rates of exocytosis"}, {"measurement": "change in membrane capacitance elicited by train of depolarizations", "setting": "[1]; ALLM 100 μM pre-treatment, vs control cells", "result": "much larger average changes in membrane capacitance"}, {"measurement": "2-DOG uptake into adipocytes with insulin", "setting": "[2]; insulin 12 nmol/L", "result": "751±71", "unit": "pmol/2×10^5 cells/5 min"}, {"measurement": "2-DOG uptake into adipocytes without insulin", "setting": "[2]; no insulin", "result": "598±102", "unit": "pmol/2×10^5 cells/5 min"}, {"measurement": "2-deoxyglucose uptake into soleus muscle strips with insulin", "setting": "[3]; insulin 12 nM", "result": "0.34±0.05 (mol/ml H20/30 mins"}, {"measurement": "2-deoxyglucose uptake into soleus muscle strips without insulin", "setting": "[3]; no insulin", "result": "0.28±0.04 (mol/ml H20/30 mins"}]}]}
